Experimental findings from ChEMBL document CHEMBL1201862, “PubChem BioAssay data set” (2004) are described below.

Values joined by “and” are separate entries in the source; they are usually repeats but may differ in a detail not shown here. Equal entries are not always repeated.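 Growth conditions: 96-well plates. Treatment: test compound, 48 hours, 5 concentrations. Analysis: linear interpolation between bracketing concentrations; unreached endpoints set to highest concentration. Here, GI50 denotes the concentration required for 50% inhibition of growth.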 Active and inactive are the calls of the source. Cut-off read from the data, not from the text of the source: active = GI50 up to about 1.1 µM and inactive = higher.

Test systems include CCRF-CEM; NCI/ADR-RES; SF-539; OVCAR-5; TK-10; DU-145; Malme-3M; MDA-MB-435; SN12C; BT-549; EKVX; OVCAR-8; M14; SR; SK-MEL-2; SF-295; 786-0; UACC-62; RXF 393.
Assay in all cases: NCI anticancer screen, dose series, 48 h

As for `COc1ccc(/C=C2\CCCC(CN(C)C)C2=O)cc1` (stereo unspecified), the GI50 in the test with CCRF-CEM was 0.971 µM (active); in the test on NCI/ADR-RES, 2.63 µM (inactive); in the test on SF-539, 14.9 µM (inactive); in the test with OVCAR-5 it was 9.08 µM (inactive); in the test with TK-10, 3.36 µM (inactive); in the test on DU-145, 16.6 µM (inactive). The GI50 with Malme-3M was 2.53 µM (inactive); in the test with MDA-MB-435 it was 2.61 µM (inactive); with SN12C, 2.56 µM (inactive); in the test on BT-549 it was 1.92 µM (inactive); in the test with EKVX it was 10.2 µM (inactive); in the test on OVCAR-8 it was 3.64 µM (inactive). Besides, the GI50 in the test on M14 was 1.72 µM (inactive); in the test on SR it was 1.02 µM (active); in the test with SK-MEL-2 it was 3.36 µM (inactive); in the test with SF-295, 19.1 µM (inactive); with 786-0, 1.79 µM (inactive); in the test on UACC-62, 1.95 µM (inactive).
Consider `SCCSCCCSCCS`, for which the GI50 in the test with CCRF-CEM was 10.5 µM (inactive); in the test on NCI/ADR-RES, > 100 µM (inactive); in the test with SF-539, > 100 µM (inactive); in the test with OVCAR-5 it was > 100 µM (inactive); in the test with DU-145, 56.4 µM (inactive); in the test with MDA-MB-435 it was > 100 µM (inactive). For the same compound, the GI50 with SN12C was > 100 µM (inactive); in the test on BT-549 it was 53.3 µM (inactive); with EKVX, > 100 µM (inactive); in the test with OVCAR-8 it was > 100 µM (inactive); with M14 it was 74.6 µM (inactive); with SR it was 4.16 µM (inactive). Moreover, the values for the GI50 with SF-295, with 786-0 and in the test with UACC-62 were 76.9 µM (inactive), > 100 µM (inactive) and > 100 µM (inactive), respectively.
Consider `O=S1(=O)OCCCOS(=O)(=O)C1Br`, for which the GI50 with NCI/ADR-RES, with SF-539, in the test with OVCAR-5, in the test with TK-10, in the test with DU-145 and in the test with Malme-3M was > 100 µM (inactive) throughout. The GI50 in the test on MDA-MB-435, in the test on SN12C, in the test on BT-549, in the test on EKVX, with OVCAR-8 and with M14 was > 100 µM (inactive) in each case. For the same compound, the GI50 in the test on SR, in the test with SK-MEL-2, in the test with SF-295, in the test on 786-0, in the test with RXF 393 and in the test with UACC-62 was > 100 µM (inactive) each time.
Turning to `COc1cc([C@H]2OC[C@H]3[C@@H]2CO[C@@H]3c2cc(OC)c3c(c2)OCO3)cc(OC)c1OC`, the GI50 in the test on CCRF-CEM was 45.9 µM (inactive) and > 10 µM (inactive); in the test with NCI/ADR-RES, 23.4 µM (inactive) and 33.3 µM (inactive); with SF-539 it was > 100 µM (inactive); in the test on OVCAR-5, > 100 µM (inactive); with TK-10, > 100 µM (inactive); in the test on DU-145, 81.3 µM (inactive). The GI50 was 76 µM (inactive) in the test with MDA-MB-435; 96.8 µM (inactive) in the test on SN12C; 31.6 µM (inactive) and 52.1 µM (inactive) in the test on BT-549; 39.4 µM (inactive) and 40.9 µM (inactive) in the test with EKVX; 31.3 µM (inactive) and 49.3 µM (inactive) in the test with OVCAR-8; 65.3 µM (inactive) in the test with M14. For the same compound, the GI50 in the test with SR was 17.3 µM (inactive) and 42.1 µM (inactive); in the test with SK-MEL-2, > 100 µM (inactive); in the test with SF-295 it was 48.1 µM (inactive) and 47.9 µM (inactive); in the test on 786-0 it was > 100 µM (inactive); with UACC-62 it was 39.9 µM (inactive) and 67.3 µM (inactive).
With `CC(C)(C)c1cc(CC2C(=O)c3ccccc3C2=O)cc(C(C)(C)C)c1O`, the GI50 is 4.04 µM (inactive) in the test on CCRF-CEM; 2.69 µM (inactive) in the test with NCI/ADR-RES; 3.65 µM (inactive) in the test on SF-539; 11.7 µM (inactive) in the test on OVCAR-5; 5.57 µM (inactive) in the test on TK-10; 2.45 µM (inactive) with DU-145. Further, the GI50 was 3.78 µM (inactive) with MDA-MB-435; 4.11 µM (inactive) in the test with SN12C; 3.45 µM (inactive) in the test with BT-549; 5.37 µM (inactive) in the test with EKVX; 3.05 µM (inactive) in the test on OVCAR-8; 2.69 µM (inactive) in the test with M14. Further, the GI50 is 2.88 µM (inactive) in the test on SR; 3.2 µM (inactive) in the test with SK-MEL-2; 3.24 µM (inactive) in the test on SF-295; 3.9 µM (inactive) in the test on 786-0; 3.58 µM (inactive) in the test on UACC-62.
In the case of `CC(=O)Oc1c(OC(C)C)cc(=O)n2ccsc12`, the GI50 was 16.1 µM (inactive) in the test with CCRF-CEM; > 100 µM (inactive) in the test on NCI/ADR-RES; > 100 µM (inactive) in the test on SF-539; > 100 µM (inactive) in the test on OVCAR-5; > 100 µM (inactive) in the test on TK-10; > 100 µM (inactive) with DU-145. Also, the GI50 is > 100 µM (inactive) in the test with Malme-3M; 17.3 µM (inactive) with MDA-MB-435; > 100 µM (inactive) in the test on SN12C; > 100 µM (inactive) in the test on BT-549; > 100 µM (inactive) in the test with EKVX; > 100 µM (inactive) with OVCAR-8. Moreover, the GI50 with M14, in the test on SK-MEL-2, with SF-295, with 786-0, in the test with RXF 393 and in the test with UACC-62 was > 100 µM (inactive) in each case.
On to `CCOC(=O)c1nc2ccc(C(F)(F)F)cc2nc1Oc1ccc(F)cc1`, for which the GI50 in the test on CCRF-CEM, in the test with NCI/ADR-RES, with SF-539, in the test on TK-10, in the test on DU-145 and in the test on MDA-MB-435 was > 100 µM (inactive) throughout. The GI50 in the test with BT-549, in the test on EKVX, in the test with OVCAR-8, in the test with M14, in the test on SR and in the test with SK-MEL-2 was > 100 µM (inactive) in each case. Besides, the GI50 in the test with SF-295, in the test with 786-0, in the test on RXF 393 and in the test on UACC-62 was > 100 µM (inactive) in each case.
With `Cn1cnc2c1c(=O)n(CCNCCO)c(=O)n2C`, the GI50 with CCRF-CEM, with NCI/ADR-RES, in the test with SF-539, in the test with OVCAR-5, in the test on TK-10 and in the test on DU-145 was > 100 µM (inactive) each time. Besides, the GI50 in the test on Malme-3M, in the test with MDA-MB-435, in the test with SN12C, in the test on BT-549, in the test on EKVX and in the test with OVCAR-8 was > 100 µM (inactive) in each case. In addition, the GI50 in the test with M14, in the test with SK-MEL-2, with SF-295, with 786-0, in the test on RXF 393 and with UACC-62 was > 100 µM (inactive) in each case.
Consider `CCOC(=O)C1(C/C=C\CBr)CCCCCCCCCCC1=O` (stereo unspecified), for which the GI50 in the test on CCRF-CEM is 5.69 µM (inactive); in the test with NCI/ADR-RES, 16.7 µM (inactive); in the test with SF-539, 3.43 µM (inactive); in the test on OVCAR-5, 16.2 µM (inactive); with TK-10 it was 8.69 µM (inactive); with DU-145 it was 17.1 µM (inactive). Further, the GI50 in the test with Malme-3M is 8.22 µM (inactive); in the test with MDA-MB-435 it was 12 µM (inactive); in the test on SN12C it was 12.6 µM (inactive); with BT-549 it was 15.3 µM (inactive); in the test on EKVX, 14.9 µM (inactive); with OVCAR-8, 14.5 µM (inactive). Moreover, the GI50 is 15.7 µM (inactive) in the test on M14; 15.3 µM (inactive) in the test with SK-MEL-2; 16.9 µM (inactive) in the test on SF-295; 6.34 µM (inactive) in the test on 786-0; 11.2 µM (inactive) in the test with RXF 393; 11.5 µM (inactive) in the test with UACC-62.
Take `CN(O)C(=O)c1ccc(OCc2cccc(Cl)c2)cc1`: the GI50 is 5.12 µM (inactive) in the test with CCRF-CEM; 13.7 µM (inactive) with NCI/ADR-RES; 19 µM (inactive) in the test with SF-539; > 62.1 µM (inactive) in the test on OVCAR-5; 57.4 µM (inactive) in the test with TK-10; 27.4 µM (inactive) in the test on DU-145. For the same compound, the GI50 was 23.6 µM (inactive) in the test with MDA-MB-435; 18 µM (inactive) in the test on SN12C; 22.8 µM (inactive) with BT-549; 30.3 µM (inactive) with EKVX; 19 µM (inactive) in the test with OVCAR-8; 16.7 µM (inactive) in the test on M14. In addition, the GI50 in the test on SR is 4.91 µM (inactive); in the test with SK-MEL-2, 34.4 µM (inactive); in the test with SF-295, 13.2 µM (inactive); with 786-0 it was 12.4 µM (inactive); in the test with RXF 393 it was 25.6 µM (inactive); in the test on UACC-62, 15.4 µM (inactive).
On to `O=C1c2ccccc2S(=O)(=O)c2ccccc21`, for which the GI50 in the test on CCRF-CEM, in the test on NCI/ADR-RES, with SF-539, in the test on OVCAR-5, in the test on TK-10 and with DU-145 was > 100 µM (inactive) in each case. In addition, the GI50 is > 100 µM (inactive) with Malme-3M; > 100 µM (inactive) with MDA-MB-435; > 100 µM (inactive) in the test with SN12C; > 100 µM (inactive) in the test with BT-549; 61.1 µM (inactive) in the test on EKVX; > 100 µM (inactive) in the test with OVCAR-8. The GI50 in the test on M14, in the test with SK-MEL-2, in the test with SF-295, in the test with 786-0, in the test with RXF 393 and in the test on UACC-62 was > 100 µM (inactive) throughout.
